These results are taken from patent US8629186B2, “Polymer micelles containing anthracyclines for the treatment of cancer” (Intezyne Technologies, Inc., priority 2009, dated 2014).

Where two headings read alike, the source gives them in different places.

One data set deals with 786-0 cells. Kind of data set: Cytotoxicity of daunorubicin micelles compared to free daunorubicin, 72 hours, Cell-Titer Glo. The note with it: Homo sapiens, 786-0, 72 h. It counts as cell-based. The protocol: (§1) All cell lines were obtained from ATCC (Manassas, Va.). Media and supplements were obtained from Cell Gro (Manassas, Va.). HT-1080 cells were maintained in Eagle's Minimum Essential Medium supplemented with 10% FBS, 2 mM L-Glutamine, 1 mM sodium pyruvate, and 100 units/mL of penicillin and streptomycin. […] Cells were treated in triplicate. […] It should be noted that the IC50 values of the daunorubicin micelles are very similar to free daunorubicin.

A further data set relates to HT-1080 cells. Described as above. It counts as cell-based. The note with it: Homo sapiens, HT-1080, 72 h. The method, then: as §1
For another data set, the system named is MG-63 cells. The data set is described as above. The data set is classed as cell-based. The note with it: Homo sapiens, MG-63, 72 h. The protocol:
as §1

A further data set deals with SKOV-3 cells. Described as above. The data set is classed as cell-based. The note with it: Homo sapiens, SK-OV-3, 72 h. The protocol:
as §1

The nature of data set [1]: Rat pharmacokinetics of daunorubicin micelles compared to free daunorubicin (Example 54). The data set is classed as in vivo, Fisher rats. The note with it: plasma. The protocol: The delivery vehicle for drug administration was isotonic saline.
This study was repeated, and the micelles were injected in the same rats seven days after the first injection. The pharmacokinetic results are shown in the table below, and graphed in FIG. 22.

Data set [2] is described as follows: Pharmacokinetics of crosslinked DOX loaded micelles in mice (Example 29). The note with it: athymic nude mice, 15 mg/kg fast IV bolus tail vein, plasma doxorubicin. The method, then: Athymic nude mice were injected with 15 mg/kg of either doxorubicin, crosslinked dox loaded micelles (IT-143, Example 24), or dox loaded micelles (Example 23) by a fast IV bolus into the tail vein with an injection volume of 0.2-0.4 mL. The delivery vehicle for drug administration was isotonic saline. Mouse blood was collected from mice into K2-EDTA tubes by heart puncture at time points of 5 minutes, 15 minutes, 1 hour, and 4 hours. Plasma was isolated by centrifugation at 1000 RPM for 5 minutes, and 150 uL of extraction solution (ice cold methanol/100 ng/mL daunorubicin internal standard) was added to 50 uL of each plasma sample. Samples are then vortexed for 10 minutes, centrifuged at 13,000 RPM for 10 minutes, and 150 uL of the supernatant is transferred to HPLC vials for analysis.
(§2) Samples were analyzed on a Waters Alliance 2695 equiped with a 2475 fluorescence detector (Ex=470 nm; Em=580). A 5 μL sample injection was made onto a Waters 4 μm Nova Pak C18 (3.9×150 mm) at 30° C. with a flow rate of 0.750 mL per minute of 10 mM phosphate buffer (pH=1.4), methanol and acetonitrile (gradient from 70/10/20 to 40/10/50 for buffer/methanol/acetonitrile was made over eight minutes).

The conditions of data set [3]: rat, in vivo, iv, 10 mg/kg. The method, then:
The delivery vehicle for drug administration was isotonic saline. Rat blood was collected from the catheter into K2-EDTA tubes […] at time points of 1, minute, 5 minutes, 15 minutes, 1 hour, 4 hours, 8 hours and 24 hours. Plasma was isolated by centrifugation at 1000 RPM for 5 minutes, and 150 uL of extraction solution (ice cold methanol/100 ng/mL daunorubicin internal standard) was added to 50 uL of each plasma sample. Samples were then vortexed for 10 minutes, centrifuged at 13,000 RPM for 10 minutes, and 150 uL of the supernatant is transferred to HPLC vials for analysis.
as §2

With `COc1cccc2c1C(=O)c1c(O)c3c(c(O)c1C2=O)C[C@@](O)(C(C)=O)C[C@@H]3O[C@H]1C[C@H](N)[C@H](O)[C@H](C)O1` [Daunorubicin, daunorubicin], the IC50 in the data set on 786-0 cells was found to be 231 ± 11 nM; with HT-1080 cells it was 546 ± 57 nM; in the data set on MG-63 cells, 231 ± 11 nM; in the data set with SKOV-3 cells, 200 ± 12 nM. The Cmax was determined as 3290 ng/mL in data set [1] (Fisher rats, 10 mg/kg fast IV bolus, Day 0 (first injection)) and 10600 ng/mL in data set [1] (Fisher, rat, intravenous, 10 mg/kg, repeat experiment, same rats seven days after the first injection, read-out: Cmax). This molecule also yielded an AUC in data set [1] (Fisher, rat, intravenous, 10 mg/kg, repeat experiment, same rats seven days after the first injection) of 3540 ng·h/mL.
In the case of `COc1cccc2c1C(=O)c1c(O)c3c(c(O)c1C2=O)C[C@@](O)(C(=O)CO)C[C@@H]3O[C@H]1C[C@H](N)[C@H](O)[C@H](C)O1` [Free Dox, doxorubicin], in data set [2], the AUC is 200 ng·h/mL, the Cmax is 210 ng/mL and the T½ was 5.4 h. In data set [3], this molecule yielded an AUC of 2610 ng·h/mL and a Cmax of 9760 ng/mL.

In general, IC50 refers to the concentration needed to halve the response being measured. Read a low IC50 as greater potency in that assay. Broadly, the Cmax is the highest concentration seen after dosing. As usually defined, the AUC is concentration integrated over time. Read a low AUC as low exposure.
